# Source: patent publication US4500526A, “Cephalosporin derivatives” (Bristol-Myers Company, priority 1983, dated 1985)
# Where two headings read alike, the source gives them in different places.
# Columns and labels:
# [1] = test system: M. morganii (1 strain), Ent. cloacae (2 strains) and Ser. marcescens (2 strains); assay: MIC, two-fold serial agar dilution, group (G-)-II; type: cell-based; details: read-out: Geometric Mean of MIC
# Method: (§1) In the primary evaluation of the compounds of this invention, the Minimum Inhibitory Concentrations (MIC's) of the compounds were determined by the two-fold serial agar dilution method in Mueller-Hinton agar against 32 strains of test organisms in six groups. The sample weights of the test compounds were adjusted according to the purity of each compound, so as to give a more accurate measure of the MIC's.
# (G-)II: M. morganii (1 strain), Ent. cloacae (2 strains) and Ser.
# [2] = test system: Penicillinresistant S. aureus (5 strains); assay: MIC, two-fold serial agar dilution, group (G+)-Ib; type: cell-based; details: Staphylococcus aureus, read-out: Geometric Mean of MIC
# Method: as §1
# (G+)Ib: Penicillinresistant S. aureus (5 strains)
# [3] = test system: Cephalothinsensitive E. coli (2 strains), Kl. pneumoniae (1 strain) and Pr. mirabilis (2 strains); assay: MIC, two-fold serial agar dilution, group (G-)-Ia; type: cell-based; details: 5 strains, Mueller-Hinton agar, read-out: Geometric Mean of MIC
# Method: as §1
# (G-)Ia: Cephalothinsensitive E. coli (2 strains), Kl. pneumoniae (1
# strain) and Pr. mirabilis (2 strains)
# [4] = test system: Penicillinsensitive S. aureus (5 strains); assay: MIC, two-fold serial agar dilution, group (G+)-Ia; type: cell-based; details: Staphylococcus aureus, read-out: Geometric Mean of MIC
# Method: as §1
# (G+)Ia: Penicillinsensitive S. aureus (5 strains)
# [5] = test system: Ps. aeruginosa (6 strains); assay: MIC, two-fold serial agar dilution, group (G-)-III; type: cell-based; details: Pseudomonas aeruginosa, read-out: Geometric Mean of MIC
# Method: as §1
# (G-)III: Ps. aeruginosa (6 strains)
# [6] = test system: Cephalothinresistant E. coli (3 strains) and Kl. pneumoniae (3 strains); assay: MIC, two-fold serial agar dilution, group (G-)-Ib; type: cell-based; details: Escherichia coli, read-out: Geometric Mean of MIC
# Method: as §1
# (G-)Ib: Cephalothinresistant E. coli (3 strains) and Kl. pneumoniae (3
# [7] = Mouse blood levels after single intramuscular injection; type: in vivo, mice; details: in vivo, im, 20 mg/kg
# Method: The absorption of some of the preferred compounds were determined in mice following a single intramuscular injection of the test compound (dissolved in 0.1M phosphate buffer; pH 7) at a dosage of 20 mg/kg. Blood samples were collected from the orbital sinuses into heparinized capillary tubes and assayed in Nutrient Agar (pH 6.6) using E. coli Ess-22-31 as the test organism. The blood levels at various time intervals, the half-life values (t1/2) and the areas under the curve (AUC) are shown in Table 2.
# [8] = (G+)-Ib, 5 strains, Mueller-Hinton agar
# [9] = (G+)-Ia, 5 strains, Mueller-Hinton agar
# [10] = (G-)-III, 6 strains, Mueller-Hinton agar
# [11] = (G-)-II, 5 strains, Mueller-Hinton agar
Compound,MIC [1] [µg/mL],"MIC [2, 8] [µg/mL]",MIC [3] [µg/mL],"MIC [4, 9] [µg/mL]","MIC [5, 10] [µg/mL]",MIC [6] [µg/mL],AUC [7] [ng·h/mL],concentration at 10 min [7] [ng/mL],concentration at 20 min [7] [ng/mL],concentration at 0.5 h [7] [ng/mL],concentration at 40 min [7] [ng/mL],concentration at 50 min [7] [ng/mL],concentration at 1 h [7] [ng/mL],concentration at 1.5 h [7] [ng/mL],concentration at 2 h [7] [ng/mL],half-life [7] [min],MIC [2] [µg/mL],MIC [5] [µg/mL],"MIC [1, 11] [µg/mL]",MIC [4] [µg/mL]
"CCO/N=C(\C(=O)NC1C(=O)N2C(C(=O)[O-])=C(C[n+]3ccc4scnc4c3)CSC12)c1csc(N)n1 (stereo not drawn) [Ib, 7-[(Z)-2-(2-Aminothiazol-4-yl)-2-ethoxyiminoacetamido]-3-{(5-thiazolo[4,5-c]pyridino)methyl}-3-cephem-4-carboxylate]",0.32,0.96,0.035,0.42,2.6,0.22,8400,15000,22000,8400,6100,3800,920,680,430,19,–,–,–,–
"Nc1nc(/C(=N/OCC(=O)O)C(=O)NC2C(=O)N3C(C(=O)[O-])=C(C[n+]4ccc5sc(N)nc5c4)CS[C@H]23)cs1 (stereo partly drawn) [Ig, 7-[(Z)-2-(2-Aminothiazol-4-yl)-2-(carboxymethoxyimino)acetamido]-3-(2-amino-5-thiazolo[4,5-c]pyridinio)methyl-3-cephem-4-carboxylate]",0.1,–,0.0072,2.1,–,0.3,15000,21000,17000,15000,10000,7600,6300,1900,840,22,3.6,1.8,–,–
"CO/N=C(\C(=O)NC1C(=O)N2C(C(=O)[O-])=C(C[n+]3ccc4sc(C)nc4c3)CSC12)c1csc(N)n1 (stereo not drawn) [Ih, 7-[(Z)-2-(2-Aminothiazol-4-yl)-2-methoxyiminoacetamido]-3-[{5-(2-methylthiazolo[4,5-c]pyridinio)}methyl]-3-cephem-4-carboxylate]",0.11,0.78,0.007,0.34,2.3,0.058,8600,16000,10000,6900,5900,4100,3000,790,130,16,–,–,–,–
"CCO/N=C(\C(=O)NC1C(=O)N2C(C(=O)[O-])=C(C[n+]3ccc4sc(N)nc4c3)CSC12)c1csc(N)n1 (stereo not drawn) [Ij, 7-[(Z)-2-(2-Aminothiazol-4-yl)-2-ethoxyiminoacetamido]-3-[{5-(2-aminothiazolo[4,5-c]pyridinio)}methyl]-3-cephem-4-carboxylate]",–,0.48,0.02,0.36,3,0.17,–,–,–,–,–,–,–,–,–,–,–,–,0.24,–
"CC(C)(O/N=C(\C(=O)NC1C(=O)N2C(C(=O)[O-])=C(C[n+]3ccc4sc(N)nc4c3)CSC12)c1csc(N)n1)C(=O)O (stereo not drawn) [Io, 7-[(Z)-2-(2-Aminothiazol-4-yl)-2-(2-carboxyprop-2-oxyimino)-acetamido]-3-[{5-(2-aminothiazolo[4,5-c]pyridinio)}methyl]-3-cephem-4-carboxylate]",–,3.8,0.023,–,1.5,0.47,–,–,–,–,–,–,–,–,–,–,–,–,0.66,1.6
"CNC(=O)Nc1nc2c[n+](CC3=C(C(=O)[O-])N4C(=O)C(NC(=O)/C(=N\OC)c5csc(N)n5)[C@H]4SC3)ccc2s1 (stereo partly drawn) [Ir, 7-[(Z)-2-(2-Aminothiazol-4-yl)-2-methoxyiminoacetamido]-3-[2-(3-methylureido)-5-thiazolo[4,5-c]pyridinio]methyl-3-cephem-4-carboxylate]",–,0.8,0.025,–,5.2,0.46,–,–,–,–,–,–,–,–,–,–,–,–,0.52,0.4
